Results from US10952433B2, “Solutions for enhancing the effectiveness of insecticides and fungicides on living plants and related methods” (priority 2015, dated 2021).
Read-outs that look alike come from different tables or passages of the source.

What was measured:
[1] = system: lepidopteran larvae: cabbage loopers (Trichoplusia ni) and beet armyworms (Spodoptera exigua); assay type: in vivo; conditions: plants
Description: In a first group of tests, the results of which are shown in Table 7 (pages 22-24), romaine lettuce plants two to three inches in height were exposed to 10 milliliters of solution applied to each plant using a low volume trigger spray. With respect to containers 0-7, ten plants were employed per container, nine were treated and one was an internal control. In containers M-H, ten plants per container were used, five were treated and 5 were internal controls. Each container was infested with 30 lepidopteran larvae between the 5th and 6th instar development. Fifteen cabbage loopers (Trichoplusia ni) and 15 beet armyworms (Spodoptera exigua) were used to infest the romaine lettuce plants. Visual evaluations for the average percentage total surface area damage were taken 24 hours after infestation. Percentage damage was evaluated by 5% increments for total damage across all plant leaves.
As indicated in the first column of Table 7, in some tests, no insecticide was employed and there were two controls; a no water control and a no dye control. A wide variety of insecticides selected from the following group were tested: Chlorantranilopril, Acephate, Methoxyfenozide, Spinosad, Permethrin, and Indoxacarb. The product concentration is shown in PPM in column 2. Column 3 is divided into two subunits, the first being CO3 and the second, PO4. In all instances in columns 3, 4 and 5 and their sub-columns, the concentrations used were 200:1. The fourth column employed amine oxide, but no buffer. […] Two sub-columns each are represented for CO3 and PO4. The final column is a reading of the Percent Lepidopteran Damage to the romaine lettuce plants after 24 hours.
In addition to testing the buffered amine system of the present invention with the two amine oxides identified as CO3 and PO4 and their use with 12 carbon length and a mixture of 12 and 18 designated 1218 for comparative data purposes various differences were created in the testing. Some of the tests were performed with (a) no insecticide along with (b) no amine oxide for CO3 and PO4 and (c) with no buffer, but with amine oxide. Also, tests were run using no insecticide and no water control with no foliar application being made. Tests with no insecticide and no dye control employed foliar application of water only. The tests were conducted with all of the testing on the buffer alone, the amine oxide alone and the buffered amine oxide system of the present invention in the concentration of 200:1.

[2] = system: lepidopteran larvae: cabbage loopers (Trichoplusia ni) and beet armyworms (Spodoptera exigua); assay type: in vivo; conditions: leaf discs
Excerpt: A second series of tests involved romaine lettuce discs approximately ⅝ inch in diameter. (L. sativa). They were dipped in the treatment solution one second per disc. This test involved the 5/5 configuration, i.e., 5 treated and 5 untreated. The infestation involved […] lepidopteran larvae at the 3rd to 4th instar development per container: four cabbage loopers (Trichoplusia ni), and four beet armyworms (Spodoptera exigua) were employed. The test containers were placed in a dark humidity cabinet at 15° C. and 80% relative humidity. Visual evaluations of the average percent damage were taken at 24, 48 and 72 hours after the initiation of infestation. Damage was evaluated in 5% increments based on total disc area.
In the tests reported in Table 8 pages 29-32), romaine lettuce leaf discs ⅝″ in diameter (L. sativa) were dipped in the treatment solution for about one second per disc. Infestation was provided by eight lepidopteran larvae at the 3rd to 4th instar development per container. Four cabbage loopers (Trichoplusia ni) and four beet armyworms (Spodoptera exigua) were employed in infestation. The containers were placed in a dark humidity cabinet at 15° C. and 80% relative humidity. Visual observations of the average percent damage was taken at 24, 48 and 72 hours after infestation. Damage evaluation was by 5% increments over the total disc area.
In the tests results provided in Table 8, the identity and concentrations of the insecticide was identical to the tests results reported in Table 7. The concentration of 200:1 was employed for the no amino oxide, no buffer and buffered amine oxide system. This series of tests, however, reported how the percent damage changed with time at the respective 24, 48 and 72 hour intervals.

[3] = insecticide + CO3 buffer 200:1, no amine oxide, PPM: Chlorantranilopril 60, Acephate 70, Methoxyfenozide 100, Spinosad 30, Permethrin 10, Indoxacarb 50
[4] = insecticide + PO4 buffer 200:1, no amine oxide, PPM: Chlorantranilopril 60, Acephate 70, Methoxyfenozide 100, Spinosad 30, Permethrin 10, Indoxacarb 50
[5] = insecticide + amine oxide 12, no buffer, 200:1, PPM: Chlorantranilopril 60, Acephate 70, Methoxyfenozide 100, Spinosad 30, Permethrin 10, Indoxacarb 50
[6] = insecticide + amine oxide 1218, no buffer, 200:1, PPM: Chlorantranilopril 60, Acephate 70, Methoxyfenozide 100, Spinosad 30, Permethrin 10, Indoxacarb 50
[7] = insecticide + buffered amine oxide system CO3, 12, 200:1, PPM: Chlorantranilopril 60, Acephate 70, Methoxyfenozide 100, Spinosad 30, Permethrin 10, Indoxacarb 50
[8] = insecticide + buffered amine oxide system CO3, 1218, 200:1, PPM: Chlorantranilopril 60, Acephate 70, Methoxyfenozide 100, Spinosad 30, Permethrin 10, Indoxacarb 50
[9] = insecticide + buffered amine oxide system PO4, 12, 200:1, PPM: Chlorantranilopril 60, Acephate 70, Methoxyfenozide 100, Spinosad 30, Permethrin 10, Indoxacarb 50
[10] = insecticide + buffered amine oxide system PO4, 1218, 200:1, PPM: Chlorantranilopril 60, Acephate 70, Methoxyfenozide 100, Spinosad 30, Permethrin 10, Indoxacarb 50
[11] = insecticide alone, highest, PPM: Chlorantranilopril 120, Acephate 140, Methoxyfenozide 200, Spinosad 60, Permethrin 20, Indoxacarb 100
[12] = insecticide alone, increased, PPM: Chlorantranilopril 90, Acephate 105, Methoxyfenozide 150, Spinosad 45, Permethrin 15, Indoxacarb 75
[13] = insecticide alone, PPM: Chlorantranilopril 60, Acephate 70, Methoxyfenozide 100, Spinosad 30, Permethrin 10, Indoxacarb 50

In the case of `COc1cccc(C(=O)NN(C(=O)c2cc(C)cc(C)c2)C(C)(C)C)c1C` [Methoxyfenozide], the “Percent Lepidopteran Damage to Romaine Lettuce 24 hr” value [1, 3] is reported as 13.5%, the “Percent Lepidopteran Damage to Romaine Lettuce 24 hr” value [1, 4] is reported as 22.0% and the “Percent Lepidopteran Damage to Romaine Lettuce 24 hr” value [1, 5] is reported as 28.0%. The “Percent Lepidopteran Damage to Romaine Lettuce 24 hr” value [1, 6] was 13.0%, the “Percent Lepidopteran Damage to Romaine Lettuce 24 hr” value [1, 7] was 8.0% and the “Percent Lepidopteran Damage to Romaine Lettuce 24 hr” value [1, 8] was 9.0%. The “Percent Lepidopteran Damage to Romaine Lettuce 24 hr” value [1, 9] was 7.5%, the “Percent Lepidopteran Damage to Romaine Lettuce 24 hr” value [1, 10] was 4.5% and the “Percent Lepidopteran Damage to Romaine Lettuce 24 hr” value [1, 11] was 23.5%. For the same compound, the “Percent Lepidopteran Damage to Romaine Lettuce 24 hr” value [1, 12] was 43.0%, the “Percent Lepidopteran Damage to Romaine Lettuce 24 hr” value [1, 13] was 29.5% and the “Percent Lepidopteran Damage to Romaine Lettuce 24 hr” value [2, 3] was 96.0%. For the same compound, the “Percent Lepidopteran Damage to Romaine Lettuce 24 hr” value [2, 4] was 100.0%, the “Percent Lepidopteran Damage to Romaine Lettuce 24 hr” value [2, 5] was 79.5% and the “Percent Lepidopteran Damage to Romaine Lettuce 24 hr” value [2, 6] was 72.0%. For the same compound, the “Percent Lepidopteran Damage to Romaine Lettuce 24 hr” value [2, 7] was 42.5%, the “Percent Lepidopteran Damage to Romaine Lettuce 24 hr” value [2, 8] was 43.0% and the “Percent Lepidopteran Damage to Romaine Lettuce 24 hr” value [2, 9] was 54.5%. The “Percent Lepidopteran Damage to Romaine Lettuce 24 hr” value [2, 10] was 85.0%, the “Percent Lepidopteran Damage to Romaine Lettuce 24 hr” value [2, 11] was 100.0% and the “Percent Lepidopteran Damage to Romaine Lettuce 24 hr” value [2, 12] was 100.0%. The “Percent Lepidopteran Damage to Romaine Lettuce 24 hr” value [2, 13] was 84.0%, the “Percent Lepidopteran Damage to Romaine Lettuce 48 hr” value [2, 3] was 99.5% and the “Percent Lepidopteran Damage to Romaine Lettuce 48 hr” value [2, 4] was 100.0%. For the same compound, the “Percent Lepidopteran Damage to Romaine Lettuce 48 hr” value [2, 5] was 82.5%, the “Percent Lepidopteran Damage to Romaine Lettuce 48 hr” value [2, 6] was 80.5% and the “Percent Lepidopteran Damage to Romaine Lettuce 48 hr” value [2, 7] was 51.5%. The “Percent Lepidopteran Damage to Romaine Lettuce 48 hr” value [2, 8] was 67.0%, the “Percent Lepidopteran Damage to Romaine Lettuce 48 hr” value [2, 9] was 67.5% and the “Percent Lepidopteran Damage to Romaine Lettuce 48 hr” value [2, 10] was 87.0%. The “Percent Lepidopteran Damage to Romaine Lettuce 48 hr” value [2, 11] was 100.0%, the “Percent Lepidopteran Damage to Romaine Lettuce 48 hr” value [2, 12] was 100.0% and the “Percent Lepidopteran Damage to Romaine Lettuce 48 hr” value [2, 13] was 94.0%. The “Percent Lepidopteran Damage to Romaine Lettuce 72 hr” value [2, 3] was 100.0%, the “Percent Lepidopteran Damage to Romaine Lettuce 72 hr” value [2, 4] was 100.0% and the “Percent Lepidopteran Damage to Romaine Lettuce 72 hr” value [2, 5] was 87.0%. For the same compound, the “Percent Lepidopteran Damage to Romaine Lettuce 72 hr” value [2, 6] was 87.5%, the “Percent Lepidopteran Damage to Romaine Lettuce 72 hr” value [2, 7] was 57.0% and the “Percent Lepidopteran Damage to Romaine Lettuce 72 hr” value [2, 8] was 73.5%. The “Percent Lepidopteran Damage to Romaine Lettuce 72 hr” value [2, 9] was 73.0%, the “Percent Lepidopteran Damage to Romaine Lettuce 72 hr” value [2, 10] was 88.0% and the “Percent Lepidopteran Damage to Romaine Lettuce 72 hr” value [2, 11] was 100.0%. The “Percent Lepidopteran Damage to Romaine Lettuce 72 hr” value [2, 12] was 100.0% and the “Percent Lepidopteran Damage to Romaine Lettuce 72 hr” value [2, 13] was 96.0%.
